From ChEMBL document CHEMBL3045722, “Synthesis, calcium-channel blocking activity, and conformational analysis of some novel 1,4-dihydropyridines: application of PM3 and DFT computational methods” (Med Chem Res, 2012)

Target: Voltage-dependent L-type calcium channel subunit alpha-1C (Cavia porcellus, UniProt O35505)
Assay: Antagonist activity at Cavia porcellus albino (guinea pig) calcium channel assessed as inhibition of KCl-induced ileal longitudinal smooth muscle contraction

Voltage-dependent L-type calcium channel subunit alpha-1C, sequence (O35505 whole entry): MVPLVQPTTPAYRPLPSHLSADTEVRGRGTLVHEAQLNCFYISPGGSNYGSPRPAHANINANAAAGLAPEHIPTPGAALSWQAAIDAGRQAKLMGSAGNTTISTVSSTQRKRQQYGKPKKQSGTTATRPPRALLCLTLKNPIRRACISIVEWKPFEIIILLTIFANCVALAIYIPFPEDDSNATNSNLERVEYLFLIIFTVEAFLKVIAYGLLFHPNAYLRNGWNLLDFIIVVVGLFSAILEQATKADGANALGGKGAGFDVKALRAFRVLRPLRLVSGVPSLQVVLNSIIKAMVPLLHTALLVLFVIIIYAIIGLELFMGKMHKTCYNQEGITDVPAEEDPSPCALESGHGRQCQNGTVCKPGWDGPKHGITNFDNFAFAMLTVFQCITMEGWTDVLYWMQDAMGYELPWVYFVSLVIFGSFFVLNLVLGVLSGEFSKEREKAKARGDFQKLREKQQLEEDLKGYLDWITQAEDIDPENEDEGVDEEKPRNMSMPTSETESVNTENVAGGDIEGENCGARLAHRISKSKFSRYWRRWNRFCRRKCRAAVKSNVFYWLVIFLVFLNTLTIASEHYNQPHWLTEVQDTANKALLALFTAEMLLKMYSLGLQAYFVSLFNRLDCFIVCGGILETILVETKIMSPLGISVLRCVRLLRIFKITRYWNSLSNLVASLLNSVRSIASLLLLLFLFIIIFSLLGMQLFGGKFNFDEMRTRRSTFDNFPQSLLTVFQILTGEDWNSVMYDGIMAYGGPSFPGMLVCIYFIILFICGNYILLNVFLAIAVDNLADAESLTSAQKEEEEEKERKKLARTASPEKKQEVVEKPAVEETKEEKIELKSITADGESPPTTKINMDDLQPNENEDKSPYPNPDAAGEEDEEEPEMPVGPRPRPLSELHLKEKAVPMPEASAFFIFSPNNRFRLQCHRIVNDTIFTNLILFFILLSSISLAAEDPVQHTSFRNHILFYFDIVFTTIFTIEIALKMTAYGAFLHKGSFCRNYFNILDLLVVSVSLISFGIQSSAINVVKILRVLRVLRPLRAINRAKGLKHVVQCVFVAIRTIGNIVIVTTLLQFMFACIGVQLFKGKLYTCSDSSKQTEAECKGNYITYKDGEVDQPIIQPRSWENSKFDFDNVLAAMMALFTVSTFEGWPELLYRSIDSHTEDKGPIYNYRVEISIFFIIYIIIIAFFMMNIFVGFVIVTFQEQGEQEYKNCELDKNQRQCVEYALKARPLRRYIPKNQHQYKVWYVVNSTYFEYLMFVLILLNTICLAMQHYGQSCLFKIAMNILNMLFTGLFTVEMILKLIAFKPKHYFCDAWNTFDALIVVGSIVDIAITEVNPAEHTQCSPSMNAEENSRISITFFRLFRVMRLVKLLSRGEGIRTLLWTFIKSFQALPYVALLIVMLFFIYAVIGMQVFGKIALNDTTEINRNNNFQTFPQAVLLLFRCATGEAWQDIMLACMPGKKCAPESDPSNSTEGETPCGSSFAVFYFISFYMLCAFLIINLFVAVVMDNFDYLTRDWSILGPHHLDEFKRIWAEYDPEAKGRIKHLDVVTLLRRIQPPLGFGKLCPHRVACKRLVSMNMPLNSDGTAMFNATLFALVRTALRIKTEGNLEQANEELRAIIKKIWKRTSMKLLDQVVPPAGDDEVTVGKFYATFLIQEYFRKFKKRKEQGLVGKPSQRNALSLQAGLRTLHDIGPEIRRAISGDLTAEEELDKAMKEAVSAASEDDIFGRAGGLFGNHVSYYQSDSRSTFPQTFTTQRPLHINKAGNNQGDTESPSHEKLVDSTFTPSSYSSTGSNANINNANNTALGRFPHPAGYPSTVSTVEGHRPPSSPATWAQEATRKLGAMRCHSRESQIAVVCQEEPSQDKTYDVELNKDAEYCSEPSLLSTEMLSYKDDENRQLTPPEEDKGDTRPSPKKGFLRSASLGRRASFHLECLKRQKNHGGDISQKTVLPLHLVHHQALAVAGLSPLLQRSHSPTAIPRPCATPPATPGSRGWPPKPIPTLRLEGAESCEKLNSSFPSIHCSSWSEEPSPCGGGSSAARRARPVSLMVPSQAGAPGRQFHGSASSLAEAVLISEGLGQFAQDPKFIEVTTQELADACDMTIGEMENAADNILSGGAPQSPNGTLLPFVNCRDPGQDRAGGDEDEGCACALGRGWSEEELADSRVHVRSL

SMILES | IC50
CCOC(=O)C1=C(C)NC(C)=C(C(=O)OC(C)C)C1c1cnc(SC)n1Nc1ccccc1 (stereo not drawn) | 3.22 nM
CSc1ncc(C2C(C(=O)OC(C)C)=C(C)NC(C)=C2C(=O)OC(C)(C)C)n1Nc1ccccc1 (stereo not drawn) | 68.2 nM
COCCOC(=O)C1=C(C)NC(C)=C(C(=O)OC(C)C)C1c1cnc(SC)n1Nc1ccccc1 (stereo not drawn) | 53.4 nM
CSc1ncc(C2C(C(=O)OCc3ccccc3)=C(C)NC(C)=C2C(=O)OC(C)C)n1Nc1ccccc1 (stereo not drawn) | 7.24 nM
CSc1ncc(C2C(C(=O)OCCCc3ccccc3)=C(C)NC(C)=C2C(=O)OC(C)C)n1Nc1ccccc1 (stereo not drawn) | 6.22 nM
CSc1ncc(C2C(C(=O)OCC3CCCCC3)=C(C)NC(C)=C2C(=O)OC(C)C)n1Nc1ccccc1 (stereo not drawn) | 56 nM
CSc1ncc(C2C(C(=O)OCC(C)C)=C(C)NC(C)=C2C(=O)OCC(C)C)n1Nc1ccccc1 | 6.71 nM
COCCOC(=O)C1=C(C)NC(C)=C(C(=O)OCCOC)C1c1cnc(SC)n1Nc1ccccc1 | 17.9 nM
CSc1ncc(C2C(C(=O)OC3CCCC3)=C(C)NC(C)=C2C(=O)OC2CCCC2)n1Nc1ccccc1 | 425 nM
CSc1ncc(C2C(C(=O)OC3CCCCC3)=C(C)NC(C)=C2C(=O)OC2CCCCC2)n1Nc1ccccc1 | 465 nM
CSc1ncc(C2C(C(=O)OCC3CCCCC3)=C(C)NC(C)=C2C(=O)OCC2CCCCC2)n1Nc1ccccc1 | 621 nM
COC(=O)C1=C(C)NC(C)=C(C(=O)OC)C1c1cnc(SC)n1Nc1ccccc1 | 3.54 nM
CSc1ncc(C2C(C(=O)OC(C)(C)C)=C(C)NC(C)=C2C(=O)OC(C)(C)C)n1Nc1ccccc1 | 121 nM
CSc1ncc(C2C(C(=O)OCCCc3ccccc3)=C(C)NC(C)=C2C(=O)OCCCc2ccccc2)n1Nc1ccccc1 | 3.15 nM
COC(=O)C1=C(C)NC(C)=C(C(=O)OC(C)C)C1c1cnc(SC)n1Nc1ccccc1 (stereo not drawn) | 6.35 nM
COCCOC(=O)C1=C(C)NC(C)=C(C(=O)OC)C1c1cnc(SC)n1Nc1ccccc1 (stereo not drawn) | 9.65 nM

The next molecules have a lower IC50 than those just listed; values first:

IC50 | SMILES
3.05 nM | COC(=O)C1=C(C)NC(C)=C(C(=O)OCCCc2ccccc2)C1c1cnc(SC)n1Nc1ccccc1 (stereo not drawn)
2.91 nM | CCOC(=O)C1=C(C)NC(C)=C(C(=O)OCCOC)C1c1cnc(SC)n1Nc1ccccc1 (stereo not drawn)
1.86 nM | CCOC(=O)C1=C(C)NC(C)=C(C(=O)OCc2ccccc2)C1c1cnc(SC)n1Nc1ccccc1 (stereo not drawn)
2.54 nM | CCOC(=O)C1=C(C)NC(C)=C(C(=O)OCCCc2ccccc2)C1c1cnc(SC)n1Nc1ccccc1 (stereo not drawn)
1.69 nM | CCOC(=O)C1=C(C)NC(C)=C(C(=O)OCC)C1c1cnc(SC)n1Nc1ccccc1
2.29 nM | CCCOC(=O)C1=C(C)NC(C)=C(C(=O)OCCC)C1c1cnc(SC)n1Nc1ccccc1
2.16 nM | CSc1ncc(C2C(C(=O)OC(C)C)=C(C)NC(C)=C2C(=O)OC(C)C)n1Nc1ccccc1
1.49 nM | CSc1ncc(C2C(C(=O)OCc3ccccc3)=C(C)NC(C)=C2C(=O)OCc2ccccc2)n1Nc1ccccc1
2.79 nM | CSc1ncc(C2C(C(=O)OCCc3ccccc3)=C(C)NC(C)=C2C(=O)OCCc2ccccc2)n1Nc1ccccc1
1.66 nM | CCOC(=O)C1=C(C)NC(C)=C(C(=O)OC)C1c1cnc(SC)n1Nc1ccccc1 (stereo not drawn)
2.4 nM | CCCOC(=O)C1=C(C)NC(C)=C(C(=O)OC)C1c1cnc(SC)n1Nc1ccccc1 (stereo not drawn)
2.21 nM | COC(=O)C1=C(C)NC(C)=C(C(=O)OCc2ccccc2)C1c1cnc(SC)n1Nc1ccccc1 (stereo not drawn)
